The results in this text go back to PMC7449411, “In silico discovery and biological validation of ligands of FAD synthase, a promising new antimicrobial target” (PLoS Computational Biology, 2020).

≈ marks a conversion by molar mass, not a printed value.

For experiment [1], the system named is L. monocytogenes. Description: MIC, resazurin broth microdilution. The format is cell-based, Listeria monocytogenes. To be noted: media BHI. Background: Resazurin is reduced to fluorescent resorufin, in cell work by metabolically active cells.
Experiment [2] deals with C. glutamicum. Description: MIC, resazurin broth microdilution. To be noted: media BHI. Type of experiment: cell-based, Corynebacterium glutamicum.
Experiment [3] has as its system C. ammoniagenes. Nature of the experiment: MIC, resazurin broth microdilution. The format is cell-based, Corynebacterium ammoniagenes. To be noted: for MIC: C. ammoniagenes.
For experiment [4], the system named is S. thyphimurium. Description: MIC, resazurin broth microdilution. Type of experiment: cell-based, Salmonella thyphimurium. To be noted: media MH.
The subject of experiment [5] is C. diphteriae. Nature of the experiment: MIC, resazurin broth microdilution. The format is cell-based, Corynebacterium diphteriae.
In experiment [6] the test system is S. aureus. Description: MIC, resazurin broth microdilution. The format is cell-based, Staphylococcus aureus. To be noted: media MH.
The target of experiment [7] is T1, FMNAT activity of CaFADS (Corynebacterium ammoniagenes, UniProt Q59263).
T1 construct: made in house; host or cells: Escherichia coli BL21(DE3)
Nature of the experiment: Inhibition of the FMNAT activity of CaFADS. Type of experiment: biochemical. The following applies: 25 °C; for FMNAT % Res. act. 250 μM: residual activity at 250 μM of compound. How it is done:
(§1) To determine the compound’s ability to inhibit the RFK and/or the FMNAT activities of CaFADS, both enzymatic activities were quantitatively measured in the absence and presence of the compounds following previously described protocols. Reaction mixtures contained 50 μM ATP, 5 μM RF in 20 mM PIPES, pH 7.0, 0.8 mM MgCl2, when assaying the RFK activity, and 50 μM ATP, 10 μM FMN in 20 mM PIPES, pH 7.0, 10 mM MgCl2 when measuring the FMNAT reaction. Each compound was tested at 250 μM (0.5% residual final concentration of DMSO) for each of the two enzymatic reactions. The samples were pre-incubated at 25 °C, the reaction was then initiated by the addition of ∼ 40 nM CaFADS (final concentration) and allowed for 1 min. Finally, the reaction was stopped by boiling the samples for 5 min and the denatured protein was eliminated through centrifugation. The transformation of RF into FMN and FAD (RFK activity) and of FMN into FAD (FMNAT activity) was evaluated through flavins separation by HPLC (Waters), as previously described. All the experiments were performed in triplicate. To evaluate the potency of compounds as inhibitors, we took advantage of the decrease in quantum yield of fluorescence when FMN is transformed into FAD, which allows to follow such transformation in a continuous system. Measurements were carried out using a microplate reader Synergy HT multimode plate reader (Biotek) with BRAND 96-well plates pure Grade. Reaction mixtures contained 5 μM RF or FMN, and 50 μM ATP in 20 mM PIPES, pH 7.0, 10 mM MgCl2, and the inhibitor compound in a 5-250 μM concentration range (2% residual final concentration of DMSO). Reactions were initiated through addition of 0.4 μM CaFADS, being the final reaction volume 100 μL. Flavin fluorescence (excitation at 440 nm and emission at 530 nm) was registered at 25 °C, every 50 s during 15 min. The fluorescence change per time unit (ΔF/Δt) was calculated as the slope of the resulting fluorescence decays recorded between 0 and 6 min (linear decay of the fluorescence). Controls which contained the reaction mixture without the enzyme and without any potential CaFADS inhibitory compound were included in the assay and referred as the 0% and 100% of enzymatic activity, respectively. IC50 was calculated as the concentration of compound required for a 50% inhibition of the enzymatic activity.

Experiment [8] deals with E. coli. Nature of the experiment: MIC, resazurin broth microdilution. To be noted: media LB. Type of experiment: cell-based, Escherichia coli.
Experiment [9] deals with M. tuberculosis. Nature of the experiment: MIC, resazurin broth microdilution. Type of experiment: cell-based, Mycobacterium tuberculosis. To be noted: for MIC: M. tuberculosis, media 7H9G-ADC.
Experiment [10] concerns the target T2, RFK+FMNAT CaFADS activities (Corynebacterium ammoniagenes, UniProt Q59263).
T2 construct: made in house; host or cells: Escherichia coli BL21(DE3)
Nature of the experiment: Inhibition of the RFK+FMNAT activity of CaFADS. To be noted: 25 °C; for RFK+FMNAT % Res. act. 250 μM: residual activity at 250 μM of compound. Type of experiment: biochemical. The protocol: as §1

Experiment [11] relates to P. aeruginosa. Description: MIC, resazurin broth microdilution. Type of experiment: cell-based, Pseudomonas aeruginosa. To be noted: media MH.
The subject of experiment [12] is M. smegmatis. Nature of the experiment: MIC, resazurin broth microdilution. The following applies: media 7H9G-ADC. Type of experiment: cell-based, Mycobacterium smegmatis.
Experiment [13] relates to S. pneumoniae. Description: MIC, resazurin broth microdilution. The format is cell-based, Streptococcus pneumoniae.
Experiment [14] has as its target T3, CaFADS (Corynebacterium ammoniagenes, UniProt Q59263).
T3 construct: made in house; host or cells: Escherichia coli BL21(DE3)
Description: Differential scanning fluorescence (thermal denaturation) binding to CaFADS. The following applies: for Tm shift of CaFADS thermal denaturation: 2 μM CaFADS, compound up to 250 μM; for Kd: from differential scanning fluorescence data fitted to Eq 2, 20 mM PIPES pH 7.0, 10 mM MgCl2, 2% DMSO, n = 3, mean ± SD. How it is done: Interaction of compounds with CaFADS was evaluated using fluorescence thermal denaturation, on the bases of the shifts in denaturation midpoints of thermal curves of the protein [65]. Denaturations were performed in a Stratagene Agilent Mx3005p qPCR instrument (Santa Clara, US) following SYPR Orange (ThermoFisher Scientific) emission fluorescence (excitation at 492 nm and emission at 610 nm), which greatly increases when this probe binds to protein hydrophobic regions becoming solvent exposed upon thermal unfolding. Solutions containing 2 μM CaFADS with the studied compound in an increasing 5-250 μM concentration range (2% residual final concentration of DMSO) and 5xSYPR Orange in 20 mM PIPES pH 7.0, 10 mM MgCl2, with a 100 μL total volume were dispensed into 96-well microplates (BRAND 96-well plates pure grade™). After an initial 1 min incubation at 25 °C within the equipment, unfolding curves were registered from 25 to 100 °C at 1 °C·min^−1. Control experiments with CaFADS samples with/without DMSO were routinely performed in each microplate. For those compounds shifting midpoint denaturation temperature, Tm, the dissociation constant, Kd, was predicted by fitting the data to the equation [66] ΔTm/Tm=NRTm0/ΔH0ln(1+[L]/Kd), (2) which estimates the extent of the ligand-induced protein stabilization/destabilization. ΔTm=|Tm-Tm0| with Tm0 and Tm being the midpoint denaturation temperatures in the absence and the presence of ligand, respectively, and ΔH0 the unfolding enthalpy of the protein in the absence of ligand.
For orientation: In DSF a fluorescence change marks the thermal transition of the protein.

Experiment [15] relates to Mycobacteriumspecies. Description: MIC against Mycobacterium species (S5 Fig legend). The format is cell-based.

T1 sequence (Q59263 whole entry): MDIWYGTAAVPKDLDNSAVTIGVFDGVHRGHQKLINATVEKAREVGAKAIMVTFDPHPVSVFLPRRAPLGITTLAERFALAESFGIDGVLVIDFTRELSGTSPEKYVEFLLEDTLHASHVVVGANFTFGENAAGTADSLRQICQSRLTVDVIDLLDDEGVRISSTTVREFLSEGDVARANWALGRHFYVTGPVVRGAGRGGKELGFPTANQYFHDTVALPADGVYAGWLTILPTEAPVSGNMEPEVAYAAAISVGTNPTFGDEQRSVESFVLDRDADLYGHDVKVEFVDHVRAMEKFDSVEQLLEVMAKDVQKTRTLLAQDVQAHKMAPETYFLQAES
T3 sequence (Q59263 whole entry): as above
T2 sequence (Q59263 whole entry): as above

For the molecule `Cc1c(N=CN(C(=O)c2ccccc2)c2cccc([N+](=O)[O-])c2C)cccc1[N+](=O)[O-]` [Compound C7, N1-(2-methyl-3-nitrophenyl)-N1-{[(2-methyl-3-nitrophenyl)imino]methyl}benzamide], the MIC in experiment [1], in experiment [2], in experiment [3] (media MH), in experiment [3] (media MH+DFO), in experiment [3] (media MH+DIP) and in [3] (media MH+DIP+DFO) was greater than 256 µM throughout. Also, the minimum inhibitory concentration (MIC) in experiment [4], in experiment [5] (media MH), in experiment [6], in experiment [8], in experiment [9] and in experiment [11] was greater than 256 µM each time. Also, in [7], the “FMNAT % Res. act. 250 μM” value is reported as greater than 95%. In [10], the “RFK+FMNAT % Res. act. 250 μM” value is on record as 82 ± 7%.

For the molecule `CSC(=NS(=O)(=O)c1c(C)noc1C)NNC(=O)Nc1ccc(Cl)cc1` [Compound C9, N1-(4-chlorophenyl)-2-[{[(3,5-dimethylisoxazol-4-yl)sulfonyl]imino}(methylthio)methyl]hydrazine-1-carboxamide], the MIC (commonly the lowest concentration found to suppress growth) is greater than 64 µM in [1]; greater than 256 µM in experiment [12]; greater than 64 µM in [2]; greater than 64 µM in [3] (media BHI); greater than 256 µM in [3] (media MH); greater than 256 µM in experiment [3] (media MH+DFO). Further, the MIC is greater than 256 µM in experiment [3] (media MH+DIP); greater than 256 µM in experiment [3] (media MH+DIP+DFO); greater than 256 µM in [13] (media BHI); greater than 256 µM in experiment [13] (media MH); greater than 256 µM in experiment [4]; greater than 64 µM in experiment [5] (media BHI). For the same molecule, the MIC is given as greater than 256 µM in experiment [5] (media MH); greater than 256 µM in [6]; greater than 64 µM in experiment [8]; greater than 256 µM in experiment [9]; greater than 256 µM in [11]. The “FMNAT % Res. act. 250 μM” value in experiment [7] amounted to 56 ± 6%. The “RFK+FMNAT % Res. act. 250 μM” value in experiment [10] is on record as 76 ± 3%. Besides, in experiment [14], the “Tm shift of CaFADS thermal denaturation” value is on record as “more than 3 degrees”. In addition, the Kd (commonly the equilibrium constant for the complex coming apart) in [14] was found to be 6.4 ± 1.2 µM.

As for `O=C(NCCNc1ccc(C(F)(F)F)cc1[N+](=O)[O-])c1cccnc1Oc1ccccc1` [Compound C26, N-{2-[2-nitro-4-(trifluoromethyl)anilino]ethyl}-2-phenoxynicotinamide], the minimal inhibitory concentration (MIC) in experiment [1], in experiment [2], in [3] (media MH), in [3] (media MH+DFO), in experiment [3] (media MH+DIP) and in experiment [3] (media MH+DIP+DFO) was greater than 256 µM in each case. Also, the MIC in experiment [4], in experiment [5] (media MH), in [6], in experiment [8], in experiment [9] and in experiment [11] was greater than 256 µM each time. Moreover, the “FMNAT % Res. act. 250 μM” value in [7] amounted to 72 ± 6%. In addition, the “RFK+FMNAT % Res. act. 250 μM” value in experiment [10] was found to be 84 ± 4%.

Turning to `CC1(C(=O)O)CCC2C(CCC3CC(O)CCC32C)C1C=C1Nc2ccccc2C1=O` (stereo not drawn) [Compound C3, 7-hydroxy-2,4b-dimethyl-1-[(3-oxo-2,3-dihydro-1H-2-indolyliden)methyl]perhydro-2-phenanthrenecarboxylic acid], the minimum inhibitory concentration (MIC) was greater than 64 µM in [1]; greater than 256 µM in [12]; greater than 64 µM in [2]; greater than 64 µM in experiment [3] (media BHI); greater than 256 µM in [3] (media MH); greater than 256 µM in experiment [3] (media MH+DFO). Besides, the MIC in experiment [3] (media MH+DIP) is greater than 256 µM; in [3] (media MH+DIP+DFO), greater than 256 µM; in experiment [13] (media BHI), 256 µM (≈ 108 µg/mL); in [13] (media MH), 256 µM (≈ 108 µg/mL); in [4], greater than 256 µM; in experiment [5] (media BHI) it was greater than 64 µM. The minimum inhibitory concentration (MIC) is greater than 256 µM in [5] (media MH); greater than 256 µM in experiment [6]; greater than 64 µM in experiment [8]; 256 µM (≈ 108 µg/mL) in experiment [9]; greater than 256 µM in [11]. Further, the “MIC (μM) C. ammoniagenes” value in experiment [3] (Table 3) was greater than 256 µM. In addition, the “MIC Mycobacterium species” value in [15] is listed as “lower than 256 μM”. Further, the half-maximal inhibitory concentration (IC50) (usually the concentration that inhibits the measured activity by half) is 238 ± 7 µM in experiment [7] (kinetic measurements, 5 μM FMN, 50 μM ATP, 20 mM PIPES pH 7.0, 10 mM MgCl2, 2% DMSO) and 248 ± 3 µM in experiment [10] (kinetic measurements, 20 mM PIPES pH 7.0, 10 mM MgCl2, 2% DMSO). In experiment [7], the “FMNAT % Res. act. 250 μM” value is given as 48 ± 3%. Also, the “MIC (μM) M. tuberculosis” value in [9] (Table 3) is 256 µM (≈ 108 µg/mL). Moreover, the “RFK+FMNAT % Res. act. 250 μM” value in experiment [10] is recorded as 48 ± 5%. Further, the “Tm shift of CaFADS thermal denaturation” value in [14] is reported as “shifted it to lower values”. For the same molecule, in experiment [14], the Kd worked out at 18 ± 8 µM.
